In brackets after ≈: the same amount, converted by molar mass. Blank lines part the entries; values can stand above or below the compound they belong to.
Key:
[1] = Metabolic stability in mouse liver microsomes assessed as parent compound remaining measured at 10 mins; type: ADME, microsome; conditions: for remaining at 10 min: liver microsomes, read-out: Stability
[2] = Metabolic stability in human liver microsomes assessed as parent compound remaining measured at 10 mins; type: ADME, microsome; conditions: read-out: Stability
[3] = target: T1, Free fatty acid receptor 4 (Homo sapiens, UniProt Q5NUL3); assay: Agonist activity at PK-tagged human GPR120 long isoform expressed in CHOK1 cells co-expressing EA-tagged beta-arrestin assessed as beta-gal enzyme complex formation after 90 mins by enzyme fragment complementation assay; type: cell-based
T1 sequence (Q5NUL3 whole entry): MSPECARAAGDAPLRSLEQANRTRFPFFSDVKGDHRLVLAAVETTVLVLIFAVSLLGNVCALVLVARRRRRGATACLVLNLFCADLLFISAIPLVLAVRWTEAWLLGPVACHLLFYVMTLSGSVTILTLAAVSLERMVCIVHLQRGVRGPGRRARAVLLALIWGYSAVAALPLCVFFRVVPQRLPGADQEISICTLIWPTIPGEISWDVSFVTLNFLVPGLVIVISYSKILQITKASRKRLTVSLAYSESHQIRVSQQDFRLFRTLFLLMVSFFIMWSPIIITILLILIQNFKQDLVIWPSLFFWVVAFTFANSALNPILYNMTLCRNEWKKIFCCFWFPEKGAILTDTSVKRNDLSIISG

[4] = target: Free fatty acid receptor 4 (Homo sapiens, UniProt Q5NUL3); assay: Agonist activity at human GPR120 short splice variant expressed in HEK293 cells assessed as increase in intracellular calcium flux incubated for 30 mins measured for 300 secs at 1 sec interval by Fluo-4 NW dye based FLIPR assay; type: functional, cell-based
[5] = Metabolic stability in rat liver microsomes assessed as parent compound remaining measured at 10 mins; type: ADME, microsome; conditions: for remaining at 10 min: liver microsomes, read-out: Stability
[6] = AUClast in DIO C57bl/6J mouse at 20 mg/kg, po administered via gavage by LC-MS/MS analysis; type: ADME, organism-based; design: dose 20 mg/kg, route oral, time 0 - last; conditions: in vivo
Mus musculus [7] = assay: Antidiabetic activity in diet-induced obese C57BL/6 mouse assessed as reduction in plasma glucose delta AUC level at 0.1 mg/kg, po administered 30 mins prior to glucose challenge measured 90 mins post glucose challenge by OGTT relative to control; type: functional; design: scale not given: the % may be the effect or the level left
[8] = Cmax in SPF Sprague-Dawley rat at 10 mg/kg, po by LC-MS/MS analysis; type: ADME, organism-based; design: dose 10 mg/kg, route oral; conditions: in vivo
[9] = Oral bioavailability in SPF Sprague-Dawley rat at 10 mg/kg by LC-MS/MS analysis; type: ADME, organism-based; conditions: in vivo
[10] = Protein binding in mouse plasma; type: ADME, cell-free; conditions: read-out: PPB (converted)
[11] = Kinetic solubility of the compound in PBS; type: physicochemical; conditions: read-out: Kinetic_solubility
[12] = Half life in DIO C57bl/6J mouse at 20 mg/kg, po administered via gavage by LC-MS/MS analysis; type: ADME, organism-based; conditions: in vivo
Mus musculus [13] = assay: Antidiabetic activity in diet-induced obese C57BL/6 mouse assessed as reduction in plasma glucose delta AUC level at 1 mg/kg, po administered 30 mins prior to glucose challenge measured 90 mins post glucose challenge by OGTT relative to control; type: functional; design: scale not given: the % may be the effect or the level left
hERG (KCNH2) [14] = target: T2, hERG (KCNH2) (Homo sapiens, UniProt Q12809); assay: Inhibition of human ERG at 10 uM by patch express assay relative to control
[15] = Apparent permeability from apical to basolateral side in MDCK cells; type: ADME, cell-based, Canis lupus familiaris; conditions: dog
[16] = Inhibition of CYP450 (unknown origin) measured up to 10 uM; type: ADME; conditions: human
[17] = Protein binding in human plasma; type: ADME, cell-free; conditions: read-out: PPB (converted)
[18] = target: Voltage-gated inwardly rectifying potassium channel KCNH2 (Homo sapiens, UniProt Q12809); assay: Inhibition of human ERG
hERG (KCNH2) [19] = target: T2, hERG (KCNH2); assay: Inhibition of human ERG at 3 uM by patch express assay relative to control
Mus musculus [20] = assay: Antidiabetic activity in diet-induced obese C57BL/6 mouse harboring wild type GPR120 assessed as reduction in plasma glucose delta AUC level at 60 mg/kg, po qd administered 30 mins prior to glucose challenge measured 90 mins post glucose challenge for 3 weeks; type: functional; design: scale not given: the % may be the effect or the level left
[21] = Protein binding in rat plasma; type: ADME, cell-free; conditions: read-out: PPB (converted)
Mus musculus [22] = assay: Antidiabetic activity in diet-induced obese C57BL/6 mouse assessed as reduction in plasma glucose delta AUC level at 0.3 mg/kg, po administered 30 mins prior to glucose challenge measured 90 mins post glucose challenge by OGTT relative to control; type: functional; design: scale not given: the % may be the effect or the level left
[23] = Cmax in DIO C57bl/6J mouse at 20 mg/kg, po administered via gavage by LC-MS/MS analysis; type: ADME, organism-based; design: dose 20 mg/kg, route oral; conditions: in vivo
hERG (KCNH2) [24] = target: T2, hERG (KCNH2); assay: Inhibition of human ERG at 30 uM by patch express assay relative to control
Mus musculus [25] = assay: Antidiabetic activity in diet-induced obese C57BL/6 mouse assessed as reduction in plasma glucose delta AUC level at 3 mg/kg, po administered 30 mins prior to glucose challenge measured 90 mins post glucose challenge by OGTT relative to control; type: functional; design: scale not given: the % may be the effect or the level left
[26] = target: T3, PXR (nuclear receptor subfamily 1 group I member 2) (Homo sapiens, UniProt O75469); assay: Activation of PXR (unknown origin) at 5 uM relative to control; conditions: read-out: Activity
T3 sequence (O75469 whole entry): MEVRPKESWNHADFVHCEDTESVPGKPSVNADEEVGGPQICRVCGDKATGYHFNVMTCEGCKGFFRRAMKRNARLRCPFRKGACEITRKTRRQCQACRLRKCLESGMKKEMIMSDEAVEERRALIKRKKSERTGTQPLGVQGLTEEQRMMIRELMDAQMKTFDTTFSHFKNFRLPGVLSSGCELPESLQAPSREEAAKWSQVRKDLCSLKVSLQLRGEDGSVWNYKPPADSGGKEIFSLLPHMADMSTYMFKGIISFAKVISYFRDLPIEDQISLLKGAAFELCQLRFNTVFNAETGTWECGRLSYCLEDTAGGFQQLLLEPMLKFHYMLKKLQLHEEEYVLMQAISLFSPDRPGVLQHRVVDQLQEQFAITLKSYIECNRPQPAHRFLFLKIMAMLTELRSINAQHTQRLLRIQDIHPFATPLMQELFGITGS

[27] = target: Free fatty acid receptor 1 (Homo sapiens, UniProt O14842); assay: Agonist activity at human GPR40 by calcium flux assay; type: functional
[28] = Half life in SPF Sprague-Dawley rat at 10 mg/kg, po by LC-MS/MS analysis; type: ADME, organism-based; conditions: in vivo
Mus musculus [29] = assay: Antidiabetic activity in diet-induced obese C57BL/6 mouse assessed as reduction in plasma glucose delta AUC level administered orally 30 mins prior to glucose challenge measured 90 mins post glucose challenge by OGTT; type: functional, organism-based
[30] = Efflux ratio of apparent permeability from basolateral to apical side over apical to basolateral side in MDCK cells; type: ADME, cell-based, Canis lupus familiaris; conditions: dog
[31] = AUClast in SPF Sprague-Dawley rat at 10 mg/kg, po by LC-MS/MS analysis; type: ADME, organism-based; design: dose 10 mg/kg, time 0 - last, route oral; conditions: in vivo
[32] = target: T4, Free fatty acid receptor 4 (Mus musculus, UniProt Q7TMA4); assay: Agonist activity at mouse GPR120 by calcium flux assay; type: functional
T4 sequence (Q7TMA4 whole entry): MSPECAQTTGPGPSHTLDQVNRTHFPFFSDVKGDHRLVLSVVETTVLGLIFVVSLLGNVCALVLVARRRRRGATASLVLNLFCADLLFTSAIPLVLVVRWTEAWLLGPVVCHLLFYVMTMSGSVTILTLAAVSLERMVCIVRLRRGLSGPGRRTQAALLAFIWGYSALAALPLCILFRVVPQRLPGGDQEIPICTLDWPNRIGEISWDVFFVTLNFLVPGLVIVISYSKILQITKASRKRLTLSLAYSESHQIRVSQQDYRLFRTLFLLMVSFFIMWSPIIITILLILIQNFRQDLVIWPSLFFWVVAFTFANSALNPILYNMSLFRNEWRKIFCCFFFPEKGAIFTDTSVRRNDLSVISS

[33] = Ratio of drug uptake in DIO C57bl/6J mouse adipose tissue to plasma at 20 mg/kg, po administered via gavage; type: ADME, organism-based; conditions: adipose tissue and plasma
Mus musculus [34] = assay: Antidiabetic activity in GPR120 knockout diet-induced obese C57BL/6 mouse assessed as reduction in plasma glucose delta AUC level at 60 mg/kg, po qd administered 30 mins prior to glucose challenge measured 90 mins post glucose challenge for 3 weeks; type: functional; design: scale not given: the % may be the effect or the level left

T2 sequence (Q12809 whole entry): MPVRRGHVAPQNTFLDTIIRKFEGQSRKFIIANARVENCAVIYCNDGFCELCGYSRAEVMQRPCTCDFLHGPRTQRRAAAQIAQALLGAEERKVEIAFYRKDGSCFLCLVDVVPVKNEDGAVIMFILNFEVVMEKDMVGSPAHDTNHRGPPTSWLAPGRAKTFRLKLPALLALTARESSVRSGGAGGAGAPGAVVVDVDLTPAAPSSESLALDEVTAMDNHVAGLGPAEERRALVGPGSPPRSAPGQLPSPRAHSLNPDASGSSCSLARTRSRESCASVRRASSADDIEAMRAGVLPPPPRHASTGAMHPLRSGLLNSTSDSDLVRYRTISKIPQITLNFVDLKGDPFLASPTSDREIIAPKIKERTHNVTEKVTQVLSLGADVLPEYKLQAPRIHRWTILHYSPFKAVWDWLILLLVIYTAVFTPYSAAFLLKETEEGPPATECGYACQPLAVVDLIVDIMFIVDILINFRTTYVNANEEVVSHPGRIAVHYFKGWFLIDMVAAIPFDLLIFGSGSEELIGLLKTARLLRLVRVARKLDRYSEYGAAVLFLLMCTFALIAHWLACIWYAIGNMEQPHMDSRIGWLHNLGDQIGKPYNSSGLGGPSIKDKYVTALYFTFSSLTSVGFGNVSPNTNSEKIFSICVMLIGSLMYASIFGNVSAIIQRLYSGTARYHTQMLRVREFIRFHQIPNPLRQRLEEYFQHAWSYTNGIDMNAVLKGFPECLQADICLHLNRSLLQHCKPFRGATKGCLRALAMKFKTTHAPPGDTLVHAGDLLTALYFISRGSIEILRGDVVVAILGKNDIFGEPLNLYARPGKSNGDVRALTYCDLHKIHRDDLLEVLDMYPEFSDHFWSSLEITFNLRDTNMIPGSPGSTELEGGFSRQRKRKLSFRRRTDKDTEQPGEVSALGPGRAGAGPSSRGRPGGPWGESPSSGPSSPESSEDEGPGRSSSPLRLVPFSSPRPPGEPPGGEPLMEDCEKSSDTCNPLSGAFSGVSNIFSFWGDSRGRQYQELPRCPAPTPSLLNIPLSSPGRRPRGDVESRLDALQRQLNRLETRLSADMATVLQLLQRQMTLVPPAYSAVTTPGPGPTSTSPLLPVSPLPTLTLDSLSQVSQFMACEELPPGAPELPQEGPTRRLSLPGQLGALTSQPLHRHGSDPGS
Sequence of Voltage-gated inwardly rectifying potassium channel KCNH2 (Q12809 whole entry): as above
Sequence of Free fatty acid receptor 1 (O14842 whole entry): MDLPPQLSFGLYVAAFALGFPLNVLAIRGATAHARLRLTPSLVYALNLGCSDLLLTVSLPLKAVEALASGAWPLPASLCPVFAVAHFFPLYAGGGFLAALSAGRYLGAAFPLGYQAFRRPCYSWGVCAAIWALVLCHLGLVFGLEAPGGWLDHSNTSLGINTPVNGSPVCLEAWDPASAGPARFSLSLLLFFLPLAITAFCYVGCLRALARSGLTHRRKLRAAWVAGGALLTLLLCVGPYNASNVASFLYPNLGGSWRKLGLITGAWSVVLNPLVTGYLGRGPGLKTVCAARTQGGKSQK

Compound: CCc1ccc(-c2nsc(C(F)(F)F)c2COc2c(F)cc(CCC(=O)O)cc2F)cc1
EC50 [4]: 34 nM

Compound: O=C(O)CCc1cc(F)c(OCc2c(-c3ccc(Cl)cc3F)nsc2C(F)(F)F)c(F)c1
AUC(0-t) [6]: 46800 ng·h/mL | Activity (Mus musculus [7]): 3% | Cmax [8]: 3560 ng/mL | bioavailability [9]: 57.2% | remaining at 10 min [1]: 87 to 100% | fraction unbound [10]: 0.0032 | solubility kinetic [11]: 38.9 µM (≈ 19.3 µg/mL) | half-life [12]: 5.23 h | remaining at 10 min [2]: 87 to 100% | Activity (Mus musculus [13]): 61% | inhibition at 10 µM (hERG (KCNH2) [14]): 11.2% | Papp A→B [15]: 17.5 ×10⁻⁶ cm/s | inhibition (INH) [16]: Not Active | fraction unbound [17]: 0.0013 | IC50 [18]: > 50000 nM | inhibition at 3 µM (hERG (KCNH2) [19]): 5.9% | Activity (Mus musculus [20]): 137% | fraction unbound [21]: 0.0019 | Activity (Mus musculus [22]): 34% | Cmax [23]: 9270 ng/mL | inhibition at 30 µM (hERG (KCNH2) [24]): 12.5% | Activity (Mus musculus [25]): 83% | EC50 [4]: 42 nM | activity at 5 µM [26]: 25.4% | EC50 [27]: > 5000 nM | half-life [28]: 0.98 h | Activity (Mus musculus [29]): Dose-dependent effect | efflux ratio [30]: 1.05 | AUC(0-t) [31]: 4470 ng·h/mL | EC50 [32]: 77 nM | remaining at 10 min [5]: 87 to 100% | Kp [33]: 0.08 | Activity (Mus musculus [34]): 2%

Compound: O=C(O)CCc1cc(F)c(OCc2c(-c3ccc(Cl)cc3)nsc2C(F)(F)F)c(F)c1
EC50 [4]: 51 nM

Compound: O=C(O)CCc1cc(F)c(OCc2c(-c3ccc(Cl)cc3)nsc2C(F)(F)F)c(F)c1F
EC50 [4]: 104 nM

Compound: Cc1c(CCC(=O)O)cc(F)c(OCc2c(-c3ccc(Cl)cc3)nsc2C(F)(F)F)c1F
EC50 [4]: 99 nM

Compound: O=C(O)CCc1cc(F)c(OCc2c(-c3ccccc3)nsc2C(F)(F)F)c(F)c1
EC50 [4]: 160 nM

Compound: O=C(O)CCc1cc(F)c(OCc2c(-c3ccc(C(F)(F)F)cc3)nsc2C(F)(F)F)c(F)c1
EC50 [4]: 108 nM

Compound: Cc1c(CCC(=O)O)ccc(OCc2csnc2-c2ccc(Cl)cc2)c1C
remaining at 10 min [1]: 73% | remaining at 10 min [2]: 86% | EC50 [4]: 215 nM | remaining at 10 min [5]: 71%

Compound: CCc1ccc(-c2nsc(C(C)C)c2COc2ccc(CCC(=O)O)c(C)c2C)cc1
EC50 [4]: 1640 nM

Compound: O=C(O)CCc1ccc(OCc2c(-c3ccc(Cl)cc3)nsc2C(F)(F)F)cc1C(F)(F)F
EC50 [4]: 236 nM

Next, values leading:

remaining at 10 min [1]: 35% | remaining at 10 min [2]: 74% | EC50 [3]: 128 nM | EC50 [4]: 106 nM | remaining at 10 min [5]: 57%
Compound: Cc1snc(-c2ccc(Cl)cc2)c1COc1ccc(CCC(=O)O)c(C)c1C

remaining at 10 min [1]: 102% | remaining at 10 min [2]: 76% | EC50 [4]: 56 nM
Compound: CCc1ccc(-c2snc(Cl)c2COc2ccc(CCC(=O)O)c(C)c2C)cc1

EC50 [3]: 105 nM | EC50 [4]: 94 nM
Compound: Cc1c(CCC(=O)O)ccc(OCc2c(C(F)(F)F)nsc2-c2ccc(Cl)cc2)c1C

EC50 [3]: 210 nM | EC50 [4]: 120 nM
Compound: CCc1ccc(-c2nsc(C(F)(F)F)c2COc2ccc(CCC(=O)O)c(C)c2C)cc1

Stability ([1]; microsomes, 10 min): 127% | remaining at 10 min [2]: 104% | EC50 [4]: 155 nM | Stability ([5]; microsomes, 10 min): 133%
Compound: Cc1c(CCC(=O)O)ccc(OCc2c(-c3ccc(Cl)cc3)nsc2C(F)(F)F)c1C
